In patent publication US20220184072A1 (priority 2019, published 2022):
Where “and” joins values, the source holds several entries; their conditions need not be identical. Equal values may be shown once. Read-outs that look alike come from different tables or passages of the source.

What was measured:
[1] = system: STZ-diabetic rats; test: STZ-rat model, cold allodynia response; type: in vivo
Experimental: The compound of Example 1 is also tested in an STZ-rat model of neuropathic pain. Briefly, adult female rats are made diabetic by treatment with streptozotocin (STZ), an alkylating neoplastic agent which is particularly toxic to the insulin-producing beta cells of the pancreas. The resulting type-I diabetes in the rats leads to the development of diabetic neuropathy over a 3 to 6-week period. […] Once diabetic neuropathy has been induced, the rats may be treated to determine the analgesic effect of compounds.
Paw cold response threshold is a clinical assessment of cold pain perception. A rigid filament with a thermoelectric cooling system is used to stimulate the plantar surface of the hind paw for 5 seconds. The stimulus is repeated ten times at 2 to 5-minute intervals. The number of paw withdrawal responses is recorded and converted to a response frequent figure (%). This procedure is repeated at a variety of temperatures. […] At a stimulus temperature of 20° C. or 15° C., the response frequency is found to be substantially the same between STZ-treated rats and control rats (from about 10-20% response). In contrast, at a stimulus temperature of 10° C. or below, there is a substantial divergence of frequency response. In control rats, a stimulus temperature of 10° C. results in about 10% response frequency, while at 5° C., this increases to about 40% response frequency. In contrast, STZ-treated rats show a response frequency of about 60% at 10° C., and about 80% at 5° C. […] A stable cold allodynia response is observed 4-12 weeks after induction of diabetes.
The cold allodynia response test is performed at 0 hours, 1 hour, 2 hours, 4 hours and 6 hours, as described above, using a 10° C. stimulus temperature. The injection vehicle is pure polyethylene glycol-400 (PEG400).

[2] = system: ZFD rats; test: ZFD rat model, manual von Frey (tactile); type: in vivo; set-up: unit not given here
[3] = system: C57 mice; conditions: mouse, in vivo
[4] = system: ZFD rats; test: ZFD rat model, paw cold response; type: in vivo
Experimental: Forty (40) adult, male […] rats weighing 225-275 g at the start of the study are used in these experiments, including ten (10) lean, controls and thirty (30) ZFD rats. Animals are maintained in the vivarium at a controlled room temperature between 65 to 85° F. and a relative humidity between 30-70% under illumination by fluorescent lighting on a daily 12-hour light/dark cycle. All animals are maintained 2 per cage with free access to dry food and water.
Paw cold response threshold: This test replicates the clinical test of cold pain perception threshold. Rats are transferred to a testing cage with a wire mesh bottom and allowed to acclimate. A rigid filament attached to a Peltier thermoelectric cooling system is used to stimulate the plantar surface of the hind paw for 5 seconds. The stimulus is repeated 10 times at 2 to 5 minute intervals and the number of paw withdrawal responses is recorded and converted to a response frequency (%). This paradigm is repeated at various stimulation temperatures.
Dosing procedures. Zucker Fatty Diabetic rats are found to develop hyperglycemia over 6-8 weeks. […] Upon confirmation of the presence of painful neuropathy, rats are tested for three measures of hyperalgesia: cold allodynia threshold, tactile hyperalgesia (von Frey filaments), and pressure responses measured by a mechanical von Frey device. All rats are tested in all three assays and all rats receive each of four (4) pre-treatments administered subcutaneously (s.c.) in a vehicle of 10% Trappsol in water. All rats receive treatments in the same order, as follows: vehicle, 1 mg/kg Compound of Ex. 1, 3 mg/kg Compound of Ex. 1, and 10 mg/kg Compound of Ex. 1. Rats receive pre-treatments 30 minutes prior to the start of testing. Hyperalgesia/allodynia measures are recorded from each rat at baseline (0 time), then 1, 2, 3, 4, and 6 h after treatment.
After the completion of testing of all rats at all dose/conditions for each assay (cold, tactile, and pressure responses) rats are out-fitted with cannulas for intrathecal (i.t.) application of vehicle or Compound of Ex. 1 (1, 3 or 10 μg) directly to spinal cord. All rats are then re-tested in each of the tree assays at each of the 4 pretreatment conditions/doses.

[5] = Control rats, 10 mg/kg s.c., 0 hr
[6] = Control rats, 10 mg/kg s.c., 1 hr
[7] = Control rats, 10 mg/kg s.c., 2 hr
[8] = Control rats, 10 mg/kg s.c., 4 hr

**Q.** `O=C1CN2c3c(cccc3[C@@H]3CN(CCCOc4ccc(F)cc4)CC[C@@H]32)N1` [Example 1, (6bR,10aS)-8-(3-(4-fluorophenoxy)propyl)-6b,7,8,9,10,10a-hexahydro-1H-pyrido[3′,4′:4,5]pyrrolo[1,2,3-de]quinoxalin-2(3H)-one] was tested. Which cold response frequency ([1]; 1 mg/kg s.c., 1 hour) did it give?
**A.** ~35%

**Q.** What about the cold response frequency ([1]; 1 mg/kg s.c., 4 hours) of the same compound?
**A.** about 70%

**Q.** What about the cold response frequency ([1]; 1 mg/kg s.c., 6 hours) of the same compound?
**A.** about 75%

**Q.** What about the cold response frequency ([1]; 3 mg/kg s.c., 1 hour) of the same compound?
**A.** about 10%

**Q.** What about the cold response frequency ([1]; 3 mg/kg s.c., 4 hours) of the same compound?
**A.** about 65%

**Q.** And the cold response frequency ([1]; 3 mg/kg s.c., 6 hours)?
**A.** 75%

**Q.** What about the cold response frequency ([1]; 10 mg/kg s.c., 1 hour) of the same compound?
**A.** about 15%

**Q.** What about the cold response frequency ([1]; 10 mg/kg s.c., 2 hours) of the same compound?
**A.** about 10%

**Q.** And the cold response frequency ([1]; 10 mg/kg s.c., 4 hours)?
**A.** about 20%

**Q.** What about the cold response frequency ([1]; 10 mg/kg s.c., 6 hours) of the same compound?
**A.** about 40%

**Q.** And the “Manual von Frey, threshold for paw withdrawal” value (“Manual von Frey, threshold” below) ([2]; Control rats, 10 μg i.t., 0 hr)?
**A.** 11.90

**Q.** What about the “Manual von Frey, threshold” value ([2]; Control rats, 10 μg i.t., 1 hr) of the same compound?
**A.** 13.90

**Q.** What about the “Manual von Frey, threshold” value ([2]; Control rats, 10 μg i.t., 2 hr) of the same compound?
**A.** 14.14

**Q.** And the “Manual von Frey, threshold” value ([2]; Control rats, 10 μg i.t., 4 hr)?
**A.** 13.67

**Q.** And the “Manual von Frey, threshold” value [2, 5]?
**A.** 13.98

**Q.** And the “Manual von Frey, threshold” value [2, 6]?
**A.** 12.28

**Q.** And the “Manual von Frey, threshold” value [2, 7]?
**A.** 13.93

**Q.** What about the “Manual von Frey, threshold” value [2, 8] of the same compound?
**A.** 13.45

**Q.** What about the “Manual von Frey, threshold” value ([2]; ZFD rats, 1 μg i.t., 0 hr) of the same compound?
**A.** 2.06

**Q.** And the “Manual von Frey, threshold” value ([2]; ZFD rats, 1 μg i.t., 1 hr)?
**A.** 2.28

**Q.** What about the “Manual von Frey, threshold” value ([2]; ZFD rats, 1 μg i.t., 4 hr) of the same compound?
**A.** 4.25

**Q.** And the “Manual von Frey, threshold” value ([2]; ZFD rats, 3 μg i.t., 0 hr)?
**A.** 5.78

**Q.** What about the “Manual von Frey, threshold” value ([2]; ZFD rats, 3 μg i.t., 1 hr) of the same compound?
**A.** 9.68

**Q.** What about the “Manual von Frey, threshold” value ([2]; ZFD rats, 3 μg i.t., 2 hr) of the same compound?
**A.** 12.11

**Q.** And the “Manual von Frey, threshold” value ([2]; ZFD rats, 3 μg i.t., 4 hr)?
**A.** 7.01

**Q.** And the “Manual von Frey, threshold” value ([2]; ZFD rats, 10 μg i.t., 0 hr)?
**A.** 1.92

**Q.** And the “Manual von Frey, threshold” value ([2]; ZFD rats, 10 μg i.t., 1 hr)?
**A.** 8.53

**Q.** What about the “Manual von Frey, threshold” value ([2]; ZFD rats, 10 μg i.t., 2 hr) of the same compound?
**A.** 11.57

**Q.** And the “Manual von Frey, threshold” value ([2]; ZFD rats, 10 μg i.t., 4 hr)?
**A.** 4.77

**Q.** And the “Manual von Frey, threshold” value ([2]; ZFD rats, 1 mg/kg s.c., 1 hr)?
**A.** 2.61

**Q.** And the “Manual von Frey, threshold” value ([2]; ZFD rats, 1 mg/kg s.c., 2 hr)?
**A.** 1.70

**Q.** What about the “Manual von Frey, threshold” value ([2]; ZFD rats, 1 mg/kg s.c., 4 hr) of the same compound?
**A.** 2.07

**Q.** And the “Manual von Frey, threshold” value ([2]; ZFD rats, 3 mg/kg s.c., 0 hr)?
**A.** 2.22

**Q.** And the “Manual von Frey, threshold” value ([2]; ZFD rats, 3 mg/kg s.c., 1 hr)?
**A.** 6.48

**Q.** And the “Manual von Frey, threshold” value ([2]; ZFD rats, 3 mg/kg s.c., 2 hr)?
**A.** 10.15

**Q.** And the “Manual von Frey, threshold” value ([2]; ZFD rats, 10 mg/kg s.c., 0 hr)?
**A.** 1.71

**Q.** And the “Manual von Frey, threshold” value ([2]; ZFD rats, 10 mg/kg s.c., 1 hr)?
**A.** 6.97

**Q.** And the “Manual von Frey, threshold” value ([2]; ZFD rats, 10 mg/kg s.c., 2 hr)?
**A.** 13.47

**Q.** And the “Manual von Frey, threshold” value ([2]; ZFD rats, 10 mg/kg s.c., 4 hr)?
**A.** 9.25

**Q.** And the “Mean Behavior Rating (0-4)” value ([3]; po, 3 mg/kg)?
**A.** 0.9 and 0.8 and 1.5

**Q.** What about the “Mean Behavior Rating (0-4)” value ([3]; sc, 1 mg/kg) of the same compound?
**A.** 1.0 and 1.9 and 1.1

**Q.** What about the “Cold Test response frequency” value ([4]; Control rats, 10 μg i.t., 0 hr) of the same compound?
**A.** 17%

**Q.** What about the “Cold Test response frequency” value ([4]; Control rats, 10 μg i.t., 1 hr) of the same compound?
**A.** 11%

**Q.** And the “Cold Test response frequency” value ([4]; Control rats, 10 μg i.t., 2 hr)?
**A.** 20%

**Q.** And the “Cold Test response frequency” value ([4]; Control rats, 10 μg i.t., 4 hr)?
**A.** 14%

**Q.** What about the “Cold Test response frequency” value [4, 5] of the same compound?
**A.** 16%

**Q.** And the “Cold Test response frequency” value [4, 6]?
**A.** 18%

**Q.** And the “Cold Test response frequency” value [4, 7]?
**A.** 10%

**Q.** And the “Cold Test response frequency” value [4, 8]?
**A.** 10%

**Q.** What about the “Cold Test response frequency” value ([4]; ZFD rats, 1 μg i.t., 0 hr) of the same compound?
**A.** 93%

**Q.** What about the “Cold Test response frequency” value ([4]; ZFD rats, 1 μg i.t., 1 hr) of the same compound?
**A.** 90%

**Q.** What about the “Cold Test response frequency” value ([4]; ZFD rats, 1 μg i.t., 2 hr) of the same compound?
**A.** 83%

**Q.** What about the “Cold Test response frequency” value ([4]; ZFD rats, 1 μg i.t., 4 hr) of the same compound?
**A.** 83%

**Q.** What about the “Cold Test response frequency” value ([4]; ZFD rats, 3 μg i.t., 0 hr) of the same compound?
**A.** 77%

**Q.** What about the “Cold Test response frequency” value ([4]; ZFD rats, 3 μg i.t., 1 hr) of the same compound?
**A.** 37%

**Q.** And the “Cold Test response frequency” value ([4]; ZFD rats, 3 μg i.t., 2 hr)?
**A.** 27%

**Q.** What about the “Cold Test response frequency” value ([4]; ZFD rats, 3 μg i.t., 4 hr) of the same compound?
**A.** 70%

**Q.** What about the “Cold Test response frequency” value ([4]; ZFD rats, 10 μg i.t., 0 hr) of the same compound?
**A.** 93%

**Q.** What about the “Cold Test response frequency” value ([4]; ZFD rats, 10 μg i.t., 1 hr) of the same compound?
**A.** 33%

**Q.** What about the “Cold Test response frequency” value ([4]; ZFD rats, 10 μg i.t., 2 hr) of the same compound?
**A.** 33%

**Q.** And the “Cold Test response frequency” value ([4]; ZFD rats, 10 μg i.t., 4 hr)?
**A.** 77%

**Q.** What about the “Cold Test response frequency” value ([4]; ZFD rats, 1 mg/kg s.c., 0 hr) of the same compound?
**A.** 88%

**Q.** And the “Cold Test response frequency” value ([4]; ZFD rats, 1 mg/kg s.c., 1 hr)?
**A.** 96%

**Q.** And the “Cold Test response frequency” value ([4]; ZFD rats, 1 mg/kg s.c., 2 hr)?
**A.** 94%

**Q.** What about the “Cold Test response frequency” value ([4]; ZFD rats, 1 mg/kg s.c., 4 hr) of the same compound?
**A.** 86%

**Q.** What about the “Cold Test response frequency” value ([4]; ZFD rats, 3 mg/kg s.c., 0 hr) of the same compound?
**A.** 88%

**Q.** And the “Cold Test response frequency” value ([4]; ZFD rats, 3 mg/kg s.c., 1 hr)?
**A.** 32%

**Q.** What about the “Cold Test response frequency” value ([4]; ZFD rats, 3 mg/kg s.c., 2 hr) of the same compound?
**A.** 26%

**Q.** And the “Cold Test response frequency” value ([4]; ZFD rats, 3 mg/kg s.c., 4 hr)?
**A.** 90%

**Q.** And the “Cold Test response frequency” value ([4]; ZFD rats, 10 mg/kg s.c., 0 hr)?
**A.** 90%

**Q.** And the “Cold Test response frequency” value ([4]; ZFD rats, 10 mg/kg s.c., 1 hr)?
**A.** 28%

**Q.** And the “Cold Test response frequency” value ([4]; ZFD rats, 10 mg/kg s.c., 2 hr)?
**A.** 16%

**Q.** And the “Cold Test response frequency” value ([4]; ZFD rats, 10 mg/kg s.c., 4 hr)?
**A.** 48%
